ChEMBL document CHEMBL1139219, “Synthesis and biological evaluation of quinoline salicylic acids as P-selectin antagonists” (J Med Chem, 2007)
One block for each compound: values may come before it. Calls of active or inactive are those of the source. The calls are words filed in the database; no cut-off is given here.

Experiments:
HUVEC = assay: Inhibition of neutrophil adhesion to IL4-stimulated HUVEC by leukocyte rolling assay; type: functional, cell-based; conditions: Homo sapiens
[1] = biological target: Dihydroorotate dehydrogenase (quinone), mitochondrial (Homo sapiens, UniProt Q02127)
Description: Inhibition of human recombinant DHOD expressed in Escherichia coli

[2] = biological target: Dihydroorotate dehydrogenase (quinone), mitochondrial (Rattus norvegicus) (UniProt Q63707)
Description: Antagonist activity against DHOD in rat

[3] = biological target: P-selectin (Homo sapiens) (UniProt P16109); assay: Inhibition of human recombinant P-selectin expressed in CHO cells by Biacore assay at 6 mM
[4] = Clearance in Sprague-Dawley rat at 1 mg/kg, iv; type: ADME, organism-based; set-up: dose 1 mg/kg, route intravenous; conditions: in vivo
[5] = AUC in Sprague-Dawley rat at 1 mg/kg, iv; type: ADME, organism-based; set-up: dose 1 mg/kg, route intravenous; conditions: plasma
[6] = Cmax in Sprague-Dawley rat at 1 mg/kg, iv; type: ADME, organism-based; set-up: dose 1 mg/kg, route intravenous; conditions: in vivo
[7] = biological target: P-selectin (Homo sapiens) (UniProt P16109); assay: Inhibition of human recombinant P-selectin expressed in CHO cells by Biacore assay at 2 mM
[8] = biological target: P-selectin (Homo sapiens) (UniProt P16109); assay: Inhibition of human recombinant P-selectin expressed in CHO cells by Biacore assay at 250 uM
Rattus norvegicus [9] = assay: Inhibition of Freund's complete adjuvant-induced arthritis in Lewis rat at 5 mg/kg, po; type: functional, organism-based; set-up: dose 5 mg/kg
Rattus norvegicus [10] = organism: Rattus norvegicus; assay: Toxicity in Lewis rat Freund's complete adjuvant-induced arthritis model; type: organism-based; conditions: in vivo
Rattus norvegicus [11] = assay: Plasma concentration in Lewis rat Freund's complete adjuvant-induced arthritis model at 10 mg/kg, po; type: ADME, organism-based; set-up: dose 10 mg/kg, route oral; conditions: in vivo
Cytochrome P450 2C9 = Cytochrome P450 2C9 (Homo sapiens, UniProt P11712); assay: Inhibition of human CYP2C9; type: ADME
Cytochrome P450 2C8 = biological target: T1, Cytochrome P450 2C8 (Homo sapiens, UniProt P10632); assay: Inhibition of human CYP2C8; type: ADME
T1 sequence (P10632 whole entry): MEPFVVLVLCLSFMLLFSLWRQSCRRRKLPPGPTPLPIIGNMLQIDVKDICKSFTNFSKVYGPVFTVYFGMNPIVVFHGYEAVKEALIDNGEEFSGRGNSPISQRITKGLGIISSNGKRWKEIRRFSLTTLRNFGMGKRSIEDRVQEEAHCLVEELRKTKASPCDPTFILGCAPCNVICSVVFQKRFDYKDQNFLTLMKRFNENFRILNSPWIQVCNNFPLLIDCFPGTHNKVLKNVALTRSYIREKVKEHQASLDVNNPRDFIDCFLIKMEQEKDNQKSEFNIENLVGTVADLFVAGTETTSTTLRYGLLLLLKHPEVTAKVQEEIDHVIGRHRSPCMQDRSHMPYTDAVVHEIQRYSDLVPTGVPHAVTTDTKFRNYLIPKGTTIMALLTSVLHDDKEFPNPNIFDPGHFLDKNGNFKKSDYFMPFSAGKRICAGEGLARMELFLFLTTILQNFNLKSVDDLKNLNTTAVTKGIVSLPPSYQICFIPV

Cytochrome P450 1A2 = biological target: T2, Cytochrome P450 1A2 (Homo sapiens, UniProt P05177); assay: Inhibition of human CYP1A2; type: ADME
T2 sequence (P05177 whole entry): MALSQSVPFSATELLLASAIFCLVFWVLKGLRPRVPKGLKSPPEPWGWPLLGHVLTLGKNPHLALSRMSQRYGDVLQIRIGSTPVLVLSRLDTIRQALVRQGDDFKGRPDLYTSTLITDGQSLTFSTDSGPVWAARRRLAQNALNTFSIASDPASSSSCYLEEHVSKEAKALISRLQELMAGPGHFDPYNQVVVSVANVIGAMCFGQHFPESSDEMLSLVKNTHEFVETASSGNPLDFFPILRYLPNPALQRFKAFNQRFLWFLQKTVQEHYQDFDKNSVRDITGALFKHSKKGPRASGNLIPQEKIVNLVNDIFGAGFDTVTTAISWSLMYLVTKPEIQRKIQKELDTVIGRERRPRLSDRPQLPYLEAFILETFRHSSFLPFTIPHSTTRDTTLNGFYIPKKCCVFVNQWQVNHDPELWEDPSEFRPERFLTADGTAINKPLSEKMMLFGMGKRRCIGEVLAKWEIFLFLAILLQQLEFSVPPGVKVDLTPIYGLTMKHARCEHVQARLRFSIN

Cytochrome P450 2C19 = Cytochrome P450 2C19 (Homo sapiens, UniProt P33261); assay: Inhibition of human CYP2C19; type: ADME
Cytochrome P450 2A6 = biological target: T3, Cytochrome P450 2A6 (Homo sapiens, UniProt P11509); assay: Inhibition of human CYP2A6; type: ADME
T3 sequence (P11509 whole entry): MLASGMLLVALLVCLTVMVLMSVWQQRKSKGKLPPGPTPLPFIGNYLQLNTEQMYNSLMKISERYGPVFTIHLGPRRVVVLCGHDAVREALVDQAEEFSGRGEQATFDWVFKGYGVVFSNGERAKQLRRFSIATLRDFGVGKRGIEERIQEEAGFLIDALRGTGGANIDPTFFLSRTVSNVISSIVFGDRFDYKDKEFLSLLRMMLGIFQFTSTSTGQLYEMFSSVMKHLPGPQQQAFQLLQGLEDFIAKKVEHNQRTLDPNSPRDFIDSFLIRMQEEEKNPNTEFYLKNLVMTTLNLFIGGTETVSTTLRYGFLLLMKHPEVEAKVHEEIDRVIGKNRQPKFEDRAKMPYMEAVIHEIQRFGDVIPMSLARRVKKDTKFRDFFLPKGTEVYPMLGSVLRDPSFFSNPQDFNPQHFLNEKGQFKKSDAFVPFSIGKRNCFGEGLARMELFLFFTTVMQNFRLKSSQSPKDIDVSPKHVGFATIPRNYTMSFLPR

Rattus norvegicus [12] = assay: Inhibition of carrageenan-induced paw edema in Sprague-Dawley rat at 0.5 mg/kg, po; type: functional
Rattus norvegicus [13] = assay: Inhibition of carrageenan-induced paw edema in Sprague-Dawley rat at 1 mg/kg, po; type: functional
Rattus norvegicus [14] = assay: Inhibition of carrageenan-induced paw edema in Sprague-Dawley rat at 5 mg/kg, po; type: functional
Rattus norvegicus [15] = assay: Inhibition of carrageenan-induced paw edema in Sprague-Dawley rat at 10 mg/kg, po; type: functional
Rattus norvegicus [16] = assay: Inhibition of carrageenan-induced paw edema in Sprague-Dawley rat at 50 mg/kg, po; type: functional
Cytochrome P450 3A4 = Cytochrome P450 3A4 (Homo sapiens, UniProt P08684); assay: Inhibition of human CYP3A4; type: ADME
Cytochrome P450 2D6 = Cytochrome P450 2D6 (Homo sapiens, UniProt P10635); assay: Inhibition of human CYP2D6; type: ADME
[17] = Oral bioavailability in rat; type: ADME, organism-based; conditions: in vivo

Sequence of Dihydroorotate dehydrogenase (quinone), mitochondrial (Q02127 whole entry): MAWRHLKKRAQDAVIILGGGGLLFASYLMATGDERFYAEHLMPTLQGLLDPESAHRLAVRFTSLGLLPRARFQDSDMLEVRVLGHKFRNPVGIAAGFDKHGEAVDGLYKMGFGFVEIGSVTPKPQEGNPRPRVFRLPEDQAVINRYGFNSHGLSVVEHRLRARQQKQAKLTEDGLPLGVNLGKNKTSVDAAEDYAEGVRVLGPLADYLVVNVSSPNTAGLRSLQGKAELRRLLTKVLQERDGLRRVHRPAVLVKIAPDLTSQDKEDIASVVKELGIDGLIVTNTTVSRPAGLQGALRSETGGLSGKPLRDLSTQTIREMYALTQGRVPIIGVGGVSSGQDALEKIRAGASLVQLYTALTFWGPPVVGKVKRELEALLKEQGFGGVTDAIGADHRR
Sequence of P-selectin (Homo sapiens) (P16109 whole entry, looked up): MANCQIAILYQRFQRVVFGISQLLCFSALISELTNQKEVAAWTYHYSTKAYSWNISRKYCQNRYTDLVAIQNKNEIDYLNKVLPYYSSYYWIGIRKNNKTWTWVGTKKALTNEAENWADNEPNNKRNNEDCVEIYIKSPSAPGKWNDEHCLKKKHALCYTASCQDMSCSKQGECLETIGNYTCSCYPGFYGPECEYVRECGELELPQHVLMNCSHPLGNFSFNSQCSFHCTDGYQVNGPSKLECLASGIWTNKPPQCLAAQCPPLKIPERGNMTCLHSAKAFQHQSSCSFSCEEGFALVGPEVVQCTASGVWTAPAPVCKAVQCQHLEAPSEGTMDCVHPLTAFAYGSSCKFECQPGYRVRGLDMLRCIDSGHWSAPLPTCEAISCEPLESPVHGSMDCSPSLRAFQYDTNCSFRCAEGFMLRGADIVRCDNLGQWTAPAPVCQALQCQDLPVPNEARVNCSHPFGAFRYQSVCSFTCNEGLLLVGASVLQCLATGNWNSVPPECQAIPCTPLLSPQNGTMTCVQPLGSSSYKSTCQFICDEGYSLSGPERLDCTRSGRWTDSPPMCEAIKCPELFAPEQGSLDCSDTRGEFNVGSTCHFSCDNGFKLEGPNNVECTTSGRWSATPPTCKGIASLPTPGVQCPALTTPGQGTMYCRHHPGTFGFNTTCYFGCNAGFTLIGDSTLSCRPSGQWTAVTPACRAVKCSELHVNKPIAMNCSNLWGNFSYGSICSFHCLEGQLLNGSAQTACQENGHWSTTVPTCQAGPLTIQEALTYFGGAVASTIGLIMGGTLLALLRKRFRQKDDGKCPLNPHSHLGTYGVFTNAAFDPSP
Sequence of Cytochrome P450 2D6 (P10635 whole entry): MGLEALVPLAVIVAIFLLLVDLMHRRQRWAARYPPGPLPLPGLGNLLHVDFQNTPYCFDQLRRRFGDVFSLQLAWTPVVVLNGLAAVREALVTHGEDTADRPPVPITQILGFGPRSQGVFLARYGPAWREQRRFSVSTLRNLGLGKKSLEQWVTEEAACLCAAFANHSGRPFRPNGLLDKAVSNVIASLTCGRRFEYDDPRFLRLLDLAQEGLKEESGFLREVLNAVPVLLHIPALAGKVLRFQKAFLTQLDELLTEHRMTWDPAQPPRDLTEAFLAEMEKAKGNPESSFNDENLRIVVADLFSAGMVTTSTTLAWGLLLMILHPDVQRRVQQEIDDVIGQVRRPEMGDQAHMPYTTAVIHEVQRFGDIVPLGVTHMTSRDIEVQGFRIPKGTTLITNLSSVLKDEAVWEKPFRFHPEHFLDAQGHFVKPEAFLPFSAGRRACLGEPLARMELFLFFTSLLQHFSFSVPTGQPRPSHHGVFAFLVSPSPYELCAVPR
Sequence of Cytochrome P450 2C19 (P33261 whole entry): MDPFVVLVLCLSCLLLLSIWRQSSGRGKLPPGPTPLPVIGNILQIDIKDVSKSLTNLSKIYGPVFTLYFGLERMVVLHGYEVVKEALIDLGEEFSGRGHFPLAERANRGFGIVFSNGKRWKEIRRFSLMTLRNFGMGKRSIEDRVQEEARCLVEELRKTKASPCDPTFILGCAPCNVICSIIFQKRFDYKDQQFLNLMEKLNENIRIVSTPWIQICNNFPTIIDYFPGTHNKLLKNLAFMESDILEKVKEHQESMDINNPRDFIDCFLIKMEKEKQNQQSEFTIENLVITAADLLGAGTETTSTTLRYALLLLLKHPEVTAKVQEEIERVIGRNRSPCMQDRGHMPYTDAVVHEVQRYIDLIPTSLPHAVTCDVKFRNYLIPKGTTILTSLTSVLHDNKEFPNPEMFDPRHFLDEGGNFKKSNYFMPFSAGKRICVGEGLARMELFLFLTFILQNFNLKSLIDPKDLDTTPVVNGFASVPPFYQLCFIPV
Sequence of Cytochrome P450 3A4 (P08684 whole entry): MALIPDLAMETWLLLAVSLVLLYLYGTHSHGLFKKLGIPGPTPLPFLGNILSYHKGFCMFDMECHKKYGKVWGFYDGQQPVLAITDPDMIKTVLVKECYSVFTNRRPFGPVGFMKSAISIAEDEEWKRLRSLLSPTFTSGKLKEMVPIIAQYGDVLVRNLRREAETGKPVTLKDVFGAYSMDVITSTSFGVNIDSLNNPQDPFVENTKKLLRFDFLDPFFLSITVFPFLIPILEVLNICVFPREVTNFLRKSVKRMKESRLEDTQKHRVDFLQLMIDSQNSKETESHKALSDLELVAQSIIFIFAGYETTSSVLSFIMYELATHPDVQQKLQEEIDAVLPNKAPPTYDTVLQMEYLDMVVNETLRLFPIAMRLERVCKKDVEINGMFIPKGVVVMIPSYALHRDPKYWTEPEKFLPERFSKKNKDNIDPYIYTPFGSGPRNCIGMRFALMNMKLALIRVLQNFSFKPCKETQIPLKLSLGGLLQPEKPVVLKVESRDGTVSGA
Sequence of Cytochrome P450 2C9 (P11712 whole entry): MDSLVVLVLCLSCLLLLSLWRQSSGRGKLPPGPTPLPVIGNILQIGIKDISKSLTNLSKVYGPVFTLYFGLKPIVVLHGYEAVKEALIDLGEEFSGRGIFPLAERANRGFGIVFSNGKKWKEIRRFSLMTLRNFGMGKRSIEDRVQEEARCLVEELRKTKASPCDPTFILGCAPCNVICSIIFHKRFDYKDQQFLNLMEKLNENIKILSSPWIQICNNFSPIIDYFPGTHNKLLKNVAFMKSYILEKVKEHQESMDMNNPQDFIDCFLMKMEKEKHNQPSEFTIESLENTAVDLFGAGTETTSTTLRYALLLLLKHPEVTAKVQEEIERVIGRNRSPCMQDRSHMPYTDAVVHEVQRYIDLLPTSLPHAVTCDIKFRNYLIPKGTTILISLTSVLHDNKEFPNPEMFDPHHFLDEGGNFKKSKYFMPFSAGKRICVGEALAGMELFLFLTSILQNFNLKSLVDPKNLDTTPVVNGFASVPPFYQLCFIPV
Sequence of Dihydroorotate dehydrogenase (quinone), mitochondrial (Rattus norvegicus) (Q63707 whole entry): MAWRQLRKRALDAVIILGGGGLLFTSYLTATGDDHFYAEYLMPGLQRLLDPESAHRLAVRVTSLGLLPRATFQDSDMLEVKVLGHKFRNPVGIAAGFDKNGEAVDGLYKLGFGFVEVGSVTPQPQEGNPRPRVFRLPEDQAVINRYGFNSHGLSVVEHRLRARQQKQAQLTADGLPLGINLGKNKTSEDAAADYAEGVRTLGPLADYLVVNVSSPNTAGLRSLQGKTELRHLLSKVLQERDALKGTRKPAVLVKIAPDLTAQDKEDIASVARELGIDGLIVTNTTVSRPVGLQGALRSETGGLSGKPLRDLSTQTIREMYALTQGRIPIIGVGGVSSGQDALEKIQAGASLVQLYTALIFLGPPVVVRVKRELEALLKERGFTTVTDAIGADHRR

Compound: Nc1c(-c2ccc(-c3ccccc3)cc2)nc2ccc(F)cc2c1C(=O)O
IC50 [1]: 0.012 µM | LD50 [2]: 20.5 mg/kg

Compound: CN(C)c1ccc(-c2cccc3c(C(=O)O)c(O)c(-c4ccc(Cl)cc4)nc23)cc1
IC50 (HUVEC): 20 µM

Compound: COc1c(-c2ccccc2)nc2ccccc2c1C(=O)O
inhibition [3]: 22%

Compound: O=C(O)c1c(O)c(-c2ccc(Cl)cc2)nc2ccc(-c3ccsc3)cc12
IC50 [1]: 134 µM

Compound: CCN(CC)c1ccc(-c2nc3c(C)c(C)ccc3c(C(=O)O)c2O)cc1
IC50 (HUVEC): 19 µM

Compound: Cc1cc(OC(F)(F)F)cc2c(C(=O)O)c(O)c(-c3ccc(Cl)cc3)nc12
IC50 (HUVEC): 15.5 µM

Compound: Cc1ccc2c(C(=O)O)c(O)c(-c3cccc(Cl)c3)nc2c1C
IC50 (HUVEC): 5 µM

Compound: Cc1ccc2c(C(=O)O)c(O)c(-c3ccc(C(C)C)cc3)nc2c1C
IC50 (HUVEC): 8 µM

Compound: O=C(O)c1cc(-c2ccccc2)nc2ccccc12
inhibition [3]: 22%

Compound: COc1ccc(-c2ccc3nc(-c4ccc(Cl)cc4)c(O)c(C(=O)O)c3c2)cc1
inhibition [8]: 39%

Compound: O=C(O)c1c(O)c(-c2ccc(Cl)cc2)nc2ccc(OC(F)(F)F)cc12
IC50 (HUVEC): 25 µM

Compound: Cc1ccc2c(C(=O)O)c(O)c(-c3cccc(OC(F)(F)F)c3)nc2c1C
IC50 (HUVEC): 5 µM

Compound: Oc1cc2ccccc2nc1-c1ccccc1
Activity [3]: inactive

Compound: CCc1cccc2c(C(=O)O)c(O)c(-c3ccc(Cl)cc3)nc12
IC50 (HUVEC): 10 µM

Compound: O=C(O)c1c(O)c(-c2ccc(Cl)cc2)nc2ccc(-c3ccccc3)cc12
IC50 [1]: 230 µM

Compound: Cc1ccc(-c2cc(C(F)(F)F)nn2-c2ccc(S(N)(=O)=O)cc2)cc1
Activity (Rattus norvegicus [9]): Active

Compound: O=C(O)c1ccc(-c2ccc3nc(-c4ccc(Cl)cc4)c(O)c(C(=O)O)c3c2)cc1
IC50 [1]: 135 µM

Compound: O=C(O)c1c(O)c(-c2ccc(Cl)cc2)nc2c(-c3ccccc3)cccc12
IC50 (HUVEC): 4.5 µM | clearance [4]: 9.1 mL/min/kg | AUC [5]: 3.93 µM·h | Cmax [6]: 9 µM | Activity (Rattus norvegicus [10]): Non-toxic | concentration (Rattus norvegicus [11]): 0.5 µM | IC50 (Cytochrome P450 2C9): 8.2 µM | IC50 (Cytochrome P450 2C8): 4.8 µM | IC50 (Cytochrome P450 1A2): 500 µM | IC50 (Cytochrome P450 2C19): 146 µM | IC50 (Cytochrome P450 2A6): 500 µM | bioavailability [17]: 24% | IC50 (Cytochrome P450 3A4): 55 µM | IC50 (Cytochrome P450 2D6): 151 µM

Compound: Cc1ccc2c(C(=O)O)c(O)c(-c3ccc(OC(F)(F)F)cc3)nc2c1C
IC50 (HUVEC): 15 µM

Compound: COc1ccc2cc([C@H](C)C(=O)O)ccc2c1 [NAPROXEN]
inhibition in vivo at 10 mg/kg (Rattus norvegicus [15]): 68.3%

Now from value to compound, other results behind:

IC50 [1]: 141 µM
Compound: O=C(O)c1c(O)c(-c2ccc(Cl)cc2)nc2c(Cl)cccc12
IC50 (HUVEC): 22 µM

clearance [4]: 4.7 mL/min/kg | AUC [5]: 8.58 µM·h | Cmax [6]: 9 µM
Compound: Cc1ccc2c(C(=O)O)c(O)c(-c3ccc(C(F)(F)F)cc3)nc2c1C
IC50 (HUVEC): 7 µM

IC50 [1]: 212 µM
Compound: Cc1cccc2c(C(=O)O)c(O)c(-c3ccc(Cl)cc3)nc12
IC50 (HUVEC): 13 µM

inhibition [7]: 38%
Compound: O=C(O)c1c(O)c(-c2ccc(Cl)cc2)nc2ccc(Cl)cc12

IC50 [1]: 130 µM
Compound: O=C(O)c1c(O)c(-c2ccc(Cl)cc2)nc2c(OC(F)(F)F)cccc12
IC50 (HUVEC): 10.5 µM

clearance [4]: 13.3 mL/min/kg | AUC [5]: 3.45 µM·h | Cmax [6]: 6.7 µM | IC50 [1]: 301 µM
Compound: CCC(C)c1cccc2c(C(=O)O)c(O)c(-c3ccc(Cl)cc3)nc12 (stereo not drawn)
IC50 (HUVEC): 3 µM

clearance [4]: 6.5 mL/min/kg | AUC [5]: 6.7 µM·h | Cmax [6]: 7 µM | IC50 [1]: 283 µM
Compound: CC(C)c1cccc2c(C(=O)O)c(O)c(-c3ccc(Cl)cc3)nc12
IC50 (HUVEC): 4.7 µM

IC50 [1]: 306 µM
Compound: COc1cccc2c(C(=O)O)c(O)c(-c3ccc(Cl)cc3)nc12

IC50 [1]: 136 µM
Compound: O=C(O)c1c(O)c(-c2ccc(Cl)cc2)nc2c(C(F)(F)F)cccc12
IC50 (HUVEC): 13 µM

IC50 [1]: 151 µM
Compound: COc1ccc2c(C(=O)O)c(O)c(-c3ccc(Cl)cc3)nc2c1

clearance [4]: 6.2 mL/min/kg | AUC [5]: 6.52 µM·h | Cmax [6]: 5.5 µM
Compound: Cc1ccc2c(C(=O)O)c(O)c(-c3ccc(Br)cc3)nc2c1C
IC50 (HUVEC): 6 µM

clearance [4]: 6.2 mL/min/kg | AUC [5]: 7.68 µM·h | Cmax [6]: 13 µM | concentration (Rattus norvegicus [11]): 1.8 µM | IC50 (Cytochrome P450 2C9): 2 µM | IC50 (Cytochrome P450 2C8): 9 µM | IC50 (Cytochrome P450 1A2): 4 µM | IC50 (Cytochrome P450 2C19): 1 µM | IC50 (Cytochrome P450 2A6): 20 µM | IC50 (Cytochrome P450 3A4): 7 µM | IC50 (Cytochrome P450 2D6): 17 µM
Compound: Cc1ccc2c(C(=O)O)c(O)c(-c3ccc(Cl)cc3)nc2c1C
IC50 (HUVEC): 10 µM | Activity (Rattus norvegicus [10]): Non-toxic | inhibition in vivo at 0.5 mg/kg (Rattus norvegicus [12]): 10.8% | inhibition in vivo at 1 mg/kg (Rattus norvegicus [13]): 12.8% | inhibition in vivo at 5 mg/kg (Rattus norvegicus [14]): 10.3% | inhibition in vivo at 10 mg/kg (Rattus norvegicus [15]): 14.1% | inhibition in vivo at 50 mg/kg (Rattus norvegicus [16]): 15.6%

IC50 [1]: 132 µM
Compound: O=C(O)c1c(O)c(-c2ccc(Cl)cc2)nc2c(Br)cccc12
IC50 (HUVEC): 20 µM
